How the values were obtained:
Assay in all cases: relative viability (nuclei count vs DMSO), 5 days (fraction); higher = more cells survive
VE-821 + AZD7762 = compound: CS(=O)(=O)c1ccc(-c2cnc(N)c(C(=O)Nc3ccccc3)n2)cc1 [VE-821] + NC(=O)Nc1cc(-c2cccc(F)c2)sc1C(=O)N[C@H]1CCCNC1 [AZD7762] (partner 0.2 µM)
Method in brief: (§1)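 A single step with final 0.05% Triton X-100, 1% formaldehyde and 1 ug/ml Hoechst fixed the cells and stained nuclei 5 days after treatment. Lung cancer cell lines in 1536-well plates had been treated by pin tool the day after seeding with one drug alone or a fixed anchor-drug dose plus five library-drug doses (not always all listed) in √10 steps, and nuclei were counted on 4× images. Relative viability is the ratio of nuclei in treated wells to nuclei in vehicle wells, taken as the median of duplicate plates.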

VE-821 + Vorinostat = compound: CS(=O)(=O)c1ccc(-c2cnc(N)c(C(=O)Nc3ccccc3)n2)cc1 [VE-821] + O=C(CCCCCCC(=O)Nc1ccccc1)NO [Vorinostat] (partner 1 µM)
Method in brief: as §1

VE-821 + Olaparib = compound: CS(=O)(=O)c1ccc(-c2cnc(N)c(C(=O)Nc3ccccc3)n2)cc1 [VE-821] + O=C(c1cc(Cc2n[nH]c(=O)c3ccccc23)ccc1F)N1CCN(C(=O)C2CC2)CC1 [Olaparib] (partner 8 µM)
Method in brief: as §1

Vismodegib + Vorinostat = compound: CS(=O)(=O)c1ccc(C(=O)Nc2ccc(Cl)c(-c3ccccn3)c2)c(Cl)c1 [Vismodegib] + O=C(CCCCCCC(=O)Nc1ccccc1)NO [Vorinostat] (partner 1 µM)
Method in brief: as §1

Cell Line	relative viability (VE-821 + AZD7762; first compound 0.08 µM)	relative viability (VE-821 + AZD7762; first compound 0.253 µM)	relative viability (VE-821 + AZD7762; first compound 0.8 µM)	relative viability (VE-821 + AZD7762; first compound 2.53 µM)	relative viability (VE-821 + AZD7762; first compound 8 µM)	relative viability (VE-821 + Vorinostat; first compound 0.08 µM)	relative viability (VE-821 + Vorinostat; first compound 0.253 µM)	relative viability (VE-821 + Vorinostat; first compound 0.8 µM)	relative viability (VE-821 + Vorinostat; first compound 2.53 µM)	relative viability (VE-821 + Vorinostat; first compound 8 µM)	relative viability (VE-821 + Olaparib; first compound 0.08 µM)	relative viability (VE-821 + Olaparib; first compound 0.253 µM)	relative viability (VE-821 + Olaparib; first compound 0.8 µM)	relative viability (VE-821 + Olaparib; first compound 2.53 µM)	relative viability (VE-821 + Olaparib; first compound 8 µM)	relative viability (Vismodegib + Vorinostat; first compound 0.08 µM)	relative viability (Vismodegib + Vorinostat; first compound 0.253 µM)	relative viability (Vismodegib + Vorinostat; first compound 0.8 µM)	relative viability (Vismodegib + Vorinostat; first compound 2.53 µM)	relative viability (Vismodegib + Vorinostat; first compound 8 µM)
ChaGo-K-1	0.884	0.729	0.866	0.747	0.48	0.769	0.747	0.734	0.803	0.682	0.449	0.396	0.36	0.345	0.283	0.761	0.739	0.799	0.754	0.708
HCC-44	0.94	0.944	1.07	0.964	0.914	1.07	1.07	1.12	1.15	1.09	0.939	0.978	0.971	0.986	0.957	1.21	1.02	1.1	1.08	1.11
NCI-H441	1.28	0.966	0.93	0.69	0.478	0.833	0.765	0.951	0.921	0.435	0.6	0.643	0.584	0.469	0.247	0.875	–	0.552	0.678	0.839
NCI-H1299	–	–	–	–	–	–	–	–	–	–	1.04	1.01	1.07	0.896	0.527	–	–	–	–	–
LU99A	0.372	0.307	0.208	0.195	0.102	0.515	0.462	0.471	0.431	0.299	0.245	0.228	0.176	0.143	0.122	0.409	0.469	0.498	0.469	0.509
NCI-H520	–	–	–	–	–	0.614	0.779	0.719	0.603	0.353	0.321	0.386	0.307	0.275	0.228	0.71	0.697	0.747	0.553	0.701
EPLC-272H	0.163	0.149	0.2	0.188	0.127	0.575	0.378	0.332	0.428	0.157	0.949	0.829	0.504	0.608	0.255	0.398	0.368	0.49	0.329	0.509
PC-14	0.362	0.232	0.315	0.338	0.187	0.95	0.68	0.613	0.639	0.255	0.292	0.282	0.167	0.137	0.097	0.682	0.773	0.764	0.838	0.749
LCLC-103H	0.829	0.758	0.705	0.758	0.632	0.863	0.772	0.783	0.834	0.592	0.769	0.76	0.71	0.76	0.663	0.74	0.733	0.613	0.749	0.539
COR-L 105	–	–	–	–	–	0.865	0.883	0.638	0.718	0.56	0.708	0.638	0.434	0.561	0.484	0.94	0.803	0.829	0.826	0.71
NCI-H2342	0.494	0.642	0.426	0.388	0.384	0.702	0.673	0.723	0.774	0.841	0.474	0.469	0.379	0.521	0.431	0.747	0.597	0.805	0.735	0.652
SW 900	0.673	0.506	0.391	0.437	0.351	0.503	0.449	0.453	0.305	0.341	0.936	0.941	0.768	0.786	0.606	0.457	0.415	0.435	–	0.602
LOU-NH91	0.796	0.711	0.823	0.717	0.681	0.885	0.879	0.919	0.966	0.825	0.988	0.921	0.924	0.916	0.847	0.884	0.899	0.793	0.845	0.885
HCC-15	1.35	0.434	1.23	1.29	1.26	0.954	0.868	0.901	0.943	0.934	0.77	0.703	0.894	0.735	0.558	0.844	0.774	0.86	0.781	0.859
A-427	0.767	0.599	0.417	0.362	0.327	0.872	0.795	0.83	0.806	0.51	0.797	0.71	0.618	0.556	0.389	0.923	0.862	0.814	0.872	0.84
SW 1573	–	–	–	–	–	0.745	0.708	0.83	0.954	0.532	0.533	0.516	0.418	0.269	0.21	0.77	0.564	0.895	0.636	0.679
NCI-H2087	1.6	1.08	1.12	1.04	0.66	0.667	0.666	0.838	0.79	0.675	0.784	0.64	0.67	0.583	0.462	0.762	0.598	0.402	0.56	0.302
LK-2	0.477	0.392	0.282	0.415	0.252	0.335	0.253	0.416	0.408	0.397	0.991	0.826	0.879	0.916	0.69	0.246	0.31	0.294	0.286	0.239
NCI-H1650	–	–	–	–	–	0.498	0.737	0.524	0.578	0.437	0.686	0.83	0.542	0.796	0.429	0.568	0.523	0.48	0.543	0.569
NCI-H2023	–	–	–	–	–	0.783	0.467	0.441	0.243	0.121	0.576	0.4	0.222	0.169	0.0964	0.625	0.53	0.711	0.654	0.612

Cell Line	relative viability (VE-821 + AZD7762; first compound 0.08 µM)	relative viability (VE-821 + AZD7762; first compound 0.253 µM)	relative viability (VE-821 + AZD7762; first compound 0.8 µM)	relative viability (VE-821 + AZD7762; first compound 2.53 µM)	relative viability (VE-821 + AZD7762; first compound 8 µM)	relative viability (VE-821 + Vorinostat; first compound 0.08 µM)	relative viability (VE-821 + Vorinostat; first compound 0.253 µM)	relative viability (VE-821 + Vorinostat; first compound 0.8 µM)	relative viability (VE-821 + Vorinostat; first compound 2.53 µM)	relative viability (VE-821 + Vorinostat; first compound 8 µM)	relative viability (VE-821 + Olaparib; first compound 0.08 µM)	relative viability (VE-821 + Olaparib; first compound 0.253 µM)	relative viability (VE-821 + Olaparib; first compound 0.8 µM)	relative viability (VE-821 + Olaparib; first compound 2.53 µM)	relative viability (VE-821 + Olaparib; first compound 8 µM)	relative viability (Vismodegib + Vorinostat; first compound 0.08 µM)	relative viability (Vismodegib + Vorinostat; first compound 0.253 µM)	relative viability (Vismodegib + Vorinostat; first compound 0.8 µM)	relative viability (Vismodegib + Vorinostat; first compound 2.53 µM)	relative viability (Vismodegib + Vorinostat; first compound 8 µM)
SK-LU-1	–	–	–	–	–	0.918	0.687	0.783	0.496	0.305	0.51	0.497	0.462	0.401	0.324	0.718	0.827	0.784	0.718	0.842
NCI-H2347	0.703	0.746	0.42	0.698	0.531	0.531	0.555	0.465	0.818	0.558	0.574	0.531	0.598	0.618	0.635	0.553	0.616	0.519	0.711	0.507
NCI-H727	0.512	0.495	0.411	0.382	0.41	1.12	1.28	1.16	1.02	1.16	0.725	0.694	0.765	0.682	0.66	1.21	1.32	1.1	1.18	1.2
COR-L23	–	–	–	–	–	0.418	0.561	0.36	0.373	0.157	0.372	0.346	0.221	0.304	0.182	0.408	0.478	0.388	0.384	0.451
NCI-H2126	1.07	1.05	0.987	0.928	0.615	0.722	0.78	0.749	0.727	0.497	1.01	0.907	0.969	0.927	0.682	0.704	0.744	0.695	0.72	0.663
NCI-H1703	0.0991	0.11	0.14	0.119	0.1	–	–	–	–	–	0.417	0.506	0.416	0.462	0.437	–	–	–	–	–
H3255	0.96	0.927	0.913	0.932	0.649	0.953	0.742	0.915	0.772	0.805	0.576	0.532	0.553	0.535	0.493	0.488	0.747	0.915	0.835	0.782
NCI-H1915	0.7	0.618	0.594	0.537	0.321	0.623	0.509	0.451	0.536	0.457	0.274	0.274	0.201	0.202	0.152	0.491	0.488	0.497	0.434	0.534
NCI-H358	0.627	0.603	0.447	0.41	0.293	0.737	0.694	0.712	0.608	0.329	0.69	0.622	0.698	0.697	0.665	0.831	0.677	0.696	0.68	0.728
NCI-H23	0.18	0.148	0.153	0.14	0.126	0.759	0.476	0.309	0.285	0.139	0.311	0.245	0.201	0.195	0.125	0.622	0.568	0.496	0.434	0.571
NCI-H2009	–	–	–	–	–	0.771	0.668	0.699	0.76	0.683	0.701	0.661	0.57	0.566	0.499	0.724	0.921	0.723	0.708	0.722
NCI-H661	–	–	–	–	–	0.839	0.836	0.815	0.783	0.627	0.766	0.801	0.671	0.708	0.687	0.785	0.768	0.841	0.737	0.763
A549	–	–	–	–	–	–	–	–	–	–	0.431	0.291	0.195	0.262	0.207	–	–	–	–	–
SK-MES-1	–	–	–	–	–	1.18	1.02	0.857	1.08	0.358	0.885	0.747	0.638	0.531	0.243	1.11	0.981	1.07	0.973	1.06
NCI-H2228	–	–	–	–	–	0.758	0.535	0.294	0.59	0.347	0.506	0.625	0.641	0.534	0.222	1.03	0.719	0.589	0.751	0.574
IA-LM	–	–	–	–	–	0.951	0.976	0.941	1.26	0.903	0.852	0.734	0.832	0.801	0.36	0.735	0.951	0.843	0.947	1.03
EBC-1	–	–	–	–	–	–	–	–	–	–	0.75	0.774	0.74	0.562	0.416	–	–	–	–	–
Calu-6	–	–	–	–	–	–	–	–	–	–	0.626	0.597	0.566	0.386	0.226	–	–	–	–	–
NCI-H1792	0.665	0.432	0.328	0.196	0.135	–	–	–	–	–	0.632	0.507	0.364	0.417	0.201	–	–	–	–	–
